Values of other authors as cited in patent EP0268927A2, “Resin-coated, non-sorptive granular, pesticidal compositions and method for the preparation thereof” (priority 1986, dated 1988).

Tested on: rats
Details: technical grade

CCOP(=S)(OCC)SCSCC [phorate, 0,0-diethyl-S-(ethylthiomethyl)phosphorodithioate]
acute oral LD50 value in rats: 1.6-3.7 mg technical/kg
